Earlier results in patent US20260048031A1, “POLYMORPHS OF CO-CRYSTALS OF ITANAPRACED AND NICOTINAMIDE” (CereSpir Incorporated, priority 2024, published 2026).
Entries after “also recorded” stand apart in the source; their conditions may differ.

Experiments:
[1] = in vivo
[2] = tested on: rat traumatic brain injury model
Juvenile Batten disease = details: unpublished
[3] = tested on: mouse models of Parkinson's Disease; details: manuscript submitted
[4] = tested on: transgenic Alzheimer's mouse models; details: Imbimbo, 2007, 2009; Lanzillotta 2011
[5] = tested on: patients with mild cognitive impairment (MCI); details: listed as itanapraced

## O=C(O)C1(c2ccc(-c3ccc(Cl)c(Cl)c3)c(F)c2)CC1 [CSP-1103, 1-(3′,4′-dichloro-2-fluoro[1,1′-biphenyl]-4-yl)-cyclopropanecarboxylic acid]
[1]
  penetration into the brain: substantial
  plasma half-life: long
[1]; po
  oral bioavailability: good
[2]; Lin et al., 2017
  effects in rat traumatic brain injury model: numerous beneficial effects
[2]; rats after TBI (Li 2017)
  accumulation of hypertrophic microglia in the injured brain: prevented
  acute lung injury: attenuated
  neurological injury: attenuated
Juvenile Batten disease
  effects in mouse models of Juvenile Batten disease: numerous beneficial effects
[3]
  effects in mouse models of Parkinson's Disease: numerous beneficial effects
[4]
  effects in transgenic Alzheimer's mouse models: numerous beneficial effects
[5]; CSF / brain, MCI patients
  TNF-α (neuroinflammatory mediator): beneficial dose-related CSF differences; also recorded: dose-related statistically significant reductions
  soluble CD40 ligand (neuroinflammatory mediator): beneficial dose-related CSF differences; also recorded: dose-related statistically significant reductions
  total tau (marker of neurodegeneration): beneficial dose-related CSF differences; also recorded: dose-related statistically significant reductions
[5]; MCI patients
  cognitive function throughout the duration of the trial: stable cognition; also recorded: stable cognitive function
[5]; Phase 1 studies and Phase 2 in MCI, treated up to two years
  safety and tolerability: good safety and tolerability; also recorded: well tolerated
